Laboratory results from US20160075680A1, “MODIFIED SOLID SUPPORT FOR THE SYNTHESIS OF OLIGONUCLEOTIDES” (FUNDACIÓN IMDEA NANOCIENCIA, priority 2013, published 2016).

Assay: Comparative in vitro release of Oligo-3 and Oligo-4 from gold nanoparticles with glutathione, followed by fluorescence
Conditions: PBS, glutathione final concentration 1 mM, Ex: 470, Em: 517 nm
Procedure: To a solution of modified gold nanoparticles prepared in Example 9 in PBS bearing the Oligo-3 or Oligo-4 was added glutathione (final concentration 1 mM). The in vitro release of the oligonucleotides bearing the fluorescein molecule is followed by fluorescence. The fluorescence was recorded at different periods of time. […] Particularly, in the case of Oligo-3, the fluorescence increases fast due to the release of the oligonucleotide from the gold nanoparticle in the presence of glutathione at 1 mM. The fluorescence is quenched when fluorescein is close to the gold nanoparticle, but it increases over time due to the release of the fluorescent oligonucleotide in the presence of glutathione. […] Ex: 470, Em: 517 nm.

| Substance | in vitro release of the fluorescein oligonucleotide from gold nanoparticles |
| --- | --- |
| Oligo-3: TTTTTTTTTT (SEQ ID NO: 3), fluorescein at position 5′ and the modification herein reported at position 3′ (5' fluorescein; 3' modification; Oligonucleotide sequence as in Oligo-3 and Oligo-4) | release takes place efficiently |
| Oligo-4: TTTTTTTTTT (SEQ ID NO: 3), fluorescein at 5′, dithiolane group at 3′ but not the disulfide group; comparative (5' fluorescein; 3' dithiolane; Oligonucleotide sequence as in Oligo-3 and Oligo-4) | inefficient release |
